Measurements published in ChEMBL document CHEMBL1201862, “PubChem BioAssay data set” (2004).
Active and inactive are the calls of the source. For most assays here, no stated cut-off is given here; in the data, actives have a measured IC50 and inactives only a lower limit.

Columns and labels:
[1] = biological target: T1, Sentrin-specific protease 7 (Homo sapiens, UniProt Q9BQF6); experiment: SENP7 protease inhibitors, SAR follow-up, biochemical, luminescence (AID 504497); assay type: functional
T1 sequence (Q9BQF6 whole entry): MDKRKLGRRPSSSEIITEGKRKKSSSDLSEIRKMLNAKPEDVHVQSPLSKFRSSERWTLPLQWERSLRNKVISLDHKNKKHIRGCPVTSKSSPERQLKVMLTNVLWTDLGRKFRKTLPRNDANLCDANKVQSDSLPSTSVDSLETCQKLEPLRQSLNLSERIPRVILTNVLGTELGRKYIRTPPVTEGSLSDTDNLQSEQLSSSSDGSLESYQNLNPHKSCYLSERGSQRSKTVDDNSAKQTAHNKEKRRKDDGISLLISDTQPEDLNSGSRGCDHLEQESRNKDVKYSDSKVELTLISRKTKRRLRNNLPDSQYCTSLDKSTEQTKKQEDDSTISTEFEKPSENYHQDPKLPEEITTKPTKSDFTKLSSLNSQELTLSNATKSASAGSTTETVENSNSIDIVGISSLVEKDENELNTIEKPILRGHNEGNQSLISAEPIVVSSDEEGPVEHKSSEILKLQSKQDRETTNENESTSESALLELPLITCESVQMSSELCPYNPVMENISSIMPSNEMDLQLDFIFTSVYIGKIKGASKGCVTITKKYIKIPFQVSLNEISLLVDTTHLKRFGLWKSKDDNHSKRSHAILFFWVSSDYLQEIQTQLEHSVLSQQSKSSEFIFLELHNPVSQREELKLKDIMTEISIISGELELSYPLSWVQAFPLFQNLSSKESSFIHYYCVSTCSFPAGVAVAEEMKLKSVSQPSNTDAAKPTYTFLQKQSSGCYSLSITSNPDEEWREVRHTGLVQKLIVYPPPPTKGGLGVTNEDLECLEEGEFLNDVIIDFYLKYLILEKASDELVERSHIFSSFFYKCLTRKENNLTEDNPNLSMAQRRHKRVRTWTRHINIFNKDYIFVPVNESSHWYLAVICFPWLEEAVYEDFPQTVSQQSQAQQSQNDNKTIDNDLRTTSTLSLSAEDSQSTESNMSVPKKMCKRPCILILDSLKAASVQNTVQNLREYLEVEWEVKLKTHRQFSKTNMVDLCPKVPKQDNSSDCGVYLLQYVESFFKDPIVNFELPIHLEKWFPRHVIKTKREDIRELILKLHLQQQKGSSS

[2] = biological target: T1, Sentrin-specific protease 7; assay type: functional
[3] = biological target: Ras and Rab interactor 1/Tyrosine-protein kinase ABL1 (Homo sapiens, UniProt P00519+Q13671); assay type: functional;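 further: biochemical TR-FRET dose-response test measuring inhibition of binding between Rin1 and Abl proteins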
Chain of Ras and Rab interactor 1/Tyrosine-protein kinase ABL1 (P00519 whole entry): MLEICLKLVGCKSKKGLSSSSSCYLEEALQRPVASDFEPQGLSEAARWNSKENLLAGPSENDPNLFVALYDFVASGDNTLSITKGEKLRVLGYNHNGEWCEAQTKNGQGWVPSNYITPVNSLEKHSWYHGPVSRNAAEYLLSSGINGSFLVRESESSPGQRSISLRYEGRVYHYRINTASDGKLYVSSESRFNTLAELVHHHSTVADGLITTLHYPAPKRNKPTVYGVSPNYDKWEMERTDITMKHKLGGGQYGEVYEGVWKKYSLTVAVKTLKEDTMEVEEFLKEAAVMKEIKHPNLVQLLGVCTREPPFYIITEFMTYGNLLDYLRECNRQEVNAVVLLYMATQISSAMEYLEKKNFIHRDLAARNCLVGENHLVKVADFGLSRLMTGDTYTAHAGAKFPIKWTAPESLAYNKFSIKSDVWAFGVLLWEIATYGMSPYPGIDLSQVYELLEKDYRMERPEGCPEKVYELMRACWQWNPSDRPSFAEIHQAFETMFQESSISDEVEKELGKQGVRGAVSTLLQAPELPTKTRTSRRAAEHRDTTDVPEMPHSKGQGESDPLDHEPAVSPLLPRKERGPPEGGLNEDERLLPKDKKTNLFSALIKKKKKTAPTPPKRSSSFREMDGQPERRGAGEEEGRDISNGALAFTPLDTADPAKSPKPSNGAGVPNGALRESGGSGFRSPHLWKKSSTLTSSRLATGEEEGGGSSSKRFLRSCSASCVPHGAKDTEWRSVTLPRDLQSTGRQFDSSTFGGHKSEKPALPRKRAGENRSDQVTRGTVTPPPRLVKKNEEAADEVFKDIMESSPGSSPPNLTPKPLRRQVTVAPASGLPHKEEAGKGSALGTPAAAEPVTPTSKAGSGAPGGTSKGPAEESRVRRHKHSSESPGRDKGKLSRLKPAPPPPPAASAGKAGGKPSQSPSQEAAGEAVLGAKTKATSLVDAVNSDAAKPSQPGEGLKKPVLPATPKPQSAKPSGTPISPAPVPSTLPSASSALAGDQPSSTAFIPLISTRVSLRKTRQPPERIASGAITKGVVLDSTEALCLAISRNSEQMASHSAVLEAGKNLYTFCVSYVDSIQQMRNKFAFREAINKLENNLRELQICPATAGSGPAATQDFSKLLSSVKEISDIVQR
Chain of Ras and Rab interactor 1/Tyrosine-protein kinase ABL1 (Q13671 whole entry): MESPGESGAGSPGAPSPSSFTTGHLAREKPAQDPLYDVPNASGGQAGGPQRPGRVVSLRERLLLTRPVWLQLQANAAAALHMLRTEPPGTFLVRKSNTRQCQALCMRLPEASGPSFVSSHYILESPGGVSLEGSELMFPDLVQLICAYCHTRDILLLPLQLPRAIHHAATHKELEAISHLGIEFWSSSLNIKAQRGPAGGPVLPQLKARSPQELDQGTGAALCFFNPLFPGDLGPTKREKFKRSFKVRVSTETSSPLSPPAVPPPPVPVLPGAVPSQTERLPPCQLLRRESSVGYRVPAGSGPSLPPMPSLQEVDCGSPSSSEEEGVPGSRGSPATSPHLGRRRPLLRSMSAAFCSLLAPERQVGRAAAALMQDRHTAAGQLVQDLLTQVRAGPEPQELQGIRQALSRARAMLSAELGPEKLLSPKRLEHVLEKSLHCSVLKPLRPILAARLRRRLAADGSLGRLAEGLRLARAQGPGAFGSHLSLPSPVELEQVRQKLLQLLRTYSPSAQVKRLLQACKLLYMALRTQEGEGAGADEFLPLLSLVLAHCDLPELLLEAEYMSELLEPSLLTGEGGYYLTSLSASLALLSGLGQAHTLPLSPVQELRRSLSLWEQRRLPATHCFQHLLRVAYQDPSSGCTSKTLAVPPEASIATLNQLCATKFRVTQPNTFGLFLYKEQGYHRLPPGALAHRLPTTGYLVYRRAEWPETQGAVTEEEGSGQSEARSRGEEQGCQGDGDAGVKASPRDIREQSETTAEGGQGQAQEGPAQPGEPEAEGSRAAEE

Caspase-3 [4] = biological target: T2, Caspase-3 (Homo sapiens, UniProt P42574); assay type: functional
T2 sequence (P42574 whole entry): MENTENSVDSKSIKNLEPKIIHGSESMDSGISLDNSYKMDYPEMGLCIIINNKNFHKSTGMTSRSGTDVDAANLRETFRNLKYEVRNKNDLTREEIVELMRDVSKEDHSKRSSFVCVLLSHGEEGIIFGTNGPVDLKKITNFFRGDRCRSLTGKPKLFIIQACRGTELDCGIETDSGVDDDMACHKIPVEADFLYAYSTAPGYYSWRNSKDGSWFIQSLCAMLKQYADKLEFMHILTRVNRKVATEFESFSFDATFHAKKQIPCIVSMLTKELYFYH

Caspase-3 [5] = biological target: T2, Caspase-3; experiment: SAR Analysis of small molecule inhibitors of Sentrin-specific proteases (SENPs) using a Caspase-3 Selectivity assay. [Related pubchem assays (depositor defined):AID2540, AID2599, AID434973, AID489001]; assay type: functional
[6] = biological target: Tyrosyl-DNA phosphodiesterase 2 (Homo sapiens, UniProt O95551); experiment: human TDP2 enzyme inhibitors, dose response, biochemical, epi absorbance, IC50 (AID 743297)
Chain of Tyrosyl-DNA phosphodiesterase 2 (O95551 whole entry): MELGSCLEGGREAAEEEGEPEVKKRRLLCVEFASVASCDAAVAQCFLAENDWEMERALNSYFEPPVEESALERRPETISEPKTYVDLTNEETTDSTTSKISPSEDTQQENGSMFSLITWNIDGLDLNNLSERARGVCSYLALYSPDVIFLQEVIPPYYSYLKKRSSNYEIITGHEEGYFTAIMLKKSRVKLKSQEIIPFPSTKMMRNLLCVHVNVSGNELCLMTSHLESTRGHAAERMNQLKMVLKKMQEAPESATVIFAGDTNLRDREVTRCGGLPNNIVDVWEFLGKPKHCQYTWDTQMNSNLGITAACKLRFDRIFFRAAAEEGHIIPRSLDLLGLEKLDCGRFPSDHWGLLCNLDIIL

[7] = biological target: T3, Replicative DNA helicase DnaB (Mycobacterium tuberculosis, UniProt P9WMR3); experiment: DnaB intein splicing inhibitors, dose response, biochemical, cell-free fluorescence (AID 449749); assay type: functional
T3 sequence (P9WMR3 whole entry): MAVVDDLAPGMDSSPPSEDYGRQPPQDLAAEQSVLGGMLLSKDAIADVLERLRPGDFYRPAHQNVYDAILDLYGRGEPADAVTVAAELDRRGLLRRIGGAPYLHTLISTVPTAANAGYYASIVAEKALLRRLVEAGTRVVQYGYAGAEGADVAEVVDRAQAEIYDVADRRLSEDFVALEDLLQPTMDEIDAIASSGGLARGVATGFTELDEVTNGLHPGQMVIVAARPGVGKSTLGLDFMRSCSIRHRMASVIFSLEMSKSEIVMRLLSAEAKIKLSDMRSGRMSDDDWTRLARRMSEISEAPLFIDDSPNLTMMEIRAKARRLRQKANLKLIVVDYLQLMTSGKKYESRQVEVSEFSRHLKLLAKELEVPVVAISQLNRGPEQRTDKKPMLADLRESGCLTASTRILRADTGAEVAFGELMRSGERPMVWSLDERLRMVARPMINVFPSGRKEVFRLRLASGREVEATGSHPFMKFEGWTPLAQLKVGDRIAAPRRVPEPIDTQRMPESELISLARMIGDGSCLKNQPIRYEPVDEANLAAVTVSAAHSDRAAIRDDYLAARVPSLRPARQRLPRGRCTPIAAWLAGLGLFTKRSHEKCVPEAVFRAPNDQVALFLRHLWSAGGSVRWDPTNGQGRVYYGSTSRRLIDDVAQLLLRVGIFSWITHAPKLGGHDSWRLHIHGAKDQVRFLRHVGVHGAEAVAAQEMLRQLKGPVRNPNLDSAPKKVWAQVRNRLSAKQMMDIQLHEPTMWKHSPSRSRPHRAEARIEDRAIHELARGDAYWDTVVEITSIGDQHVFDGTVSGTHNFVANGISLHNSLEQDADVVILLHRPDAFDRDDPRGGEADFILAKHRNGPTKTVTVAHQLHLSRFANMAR

O=C(NN=c1c(=O)c2ccccc2c1=O)c1ccccc1
active: IC50 [1] 12 µM | IC50 [2] 10.7 µM | IC50 (Caspase-3 [5]) 51.8 µM | IC50 [6] 5.36 µM | AC50 [7] 3.42 µM
inactive: IC50 [3] > 73.5 µM | IC50 (Caspase-3 [4]) > 100 µM
